From patent US11187660B2, “Fluorescent probes for monitoring voltage by photo-induced electron transfer” (The Regents of the University of California, priority 2011, dated 2021)

Legend:
[1] = tested on: HEK cells; experiment: Bleach rate in HEK cells; format: cell-based, human; settings: for bleach rate: HEK cells, 7 W/cm^2; for bleach rate, fold smaller than di-4-ANEPPS: identical illumination conditions
Protocol: The dibutyl (VFx.4.Cl) dyes stain the cell membranes of HEK293 cells when loaded at a concentration of 2 μM for 15 min at 37° C. in buffer with 0.1% DMSO as cosolvent (FIG. 9A, and FIG. 10). […] The bleach rates of the probes were tested in HEK cells and compared with di-4-ANEPPS. The bleach rates for VF1.4.Cl, VF2.4.Cl, and VF2.1.Cl at 7 W/cm^2 were measured to be 3.9±0.1×10^−2 s^−1, 1.8±0.1×10^−2 s^−1, and 8.0±0.1×10^−3 s^−1, respectively.
For studies to determine excitation sensitivity of dyes, illumination was provided by a Polychrom IV light source (T.I.L.L. Photonics GMBH) with a mechanical shutter (Uniblitz VS25). For all other studies, light was provided by an Xenon arc lamp powered by an Optiquip Power supply (Optiquip) with a mechanical shutter controlled by a Lambda 10-2 controller (Sutter). Light from the Xenon arc lamp was filtered through a 480 nm filter (30 nm bandpass, Chroma), a 510 nm dichroic (Semrock), a 530 nm emission filter (50 nm bandpass, Semrock), and focused through a 40×/1.4 oil objective. For di-4-ANEPPS imaging, a 625 nm emission filter with a 50 nm bandpass was used. Bleaching studies used identical illumination conditions (480/30 nm excitation, 510 nm dichroic, 7 W/cm^2 output) and were corrected by normalizing for the extinction coefficient at the excitation wavelengths (465-495 nm).

[2] = Absorbance and emission spectra in aqueous buffer with Triton X-100; format: physicochemical; settings: 5 mM sodium phosphate, pH 9, 0.1% Triton X-100
Protocol: FIG. 8A, FIG. 8B, and FIG. 8C show the normalized absorbance and emission spectra for exemplary compounds of the invention in 5 mM sodium phosphate, pH 9 with 0.1% Triton X-100. Black lines are absorbance spectra; grey lines are emission spectra. a) VF1.4.Cl, b) VF2.4.Cl, and c) VF2.1.Cl.
All dyes feature emission and excitation profiles typical of dichlorofluoresceins (VF1.4.Cl: λmax=521 nm, ε=93,000 M^−1·cm^−1, λem=534 nm, Φ=0.24; VF2.4.Cl: λmax=522 nm, ε=97,000 M^−1·cm^−1, λem=536 nm, Φ=0.054; VF2.1.Cl: λmax=522 nm, ε=98 000 M^−1·cm^−1, λcm=535 nm, Φ=0.057, 5 mM sodium phosphate, pH 9, 0.1% Triton X-100) (FIG. 8).
UV absorbance and fluorescence spectra were recorded on a Cary 3E (Varian) and Fluorolog 2 (Spex) fluorimeter, respectively. Analytical, semi-preparative, and preparative HPLCs were performed on Agilent HPLCs, with Luna C18(2) columns (Phenomenex) using water (solvent A) and acetonitrile (solvent B) with 0.05% TFA as an additive. Low resolution ESI mass spectrometry was performed on an Agilent LC/MSD Trap XCT coupled to an Agilent HPLC. High resolution mass spectra were acquired on a ThermoFisher Orbitrap XL hybrid mass spectrometer. ^1H NMR spectra were collected in CDCl3 or d6-DMSO (Cambridge Isotope Laboratories, Cambridge, Mass.) at 25° C. on a 400 Varian Mercury Plus or Jeol ECA 500 spectrometer at the Department of Chemistry and Biochemistry NMR Facility at the University of California, San Diego. All chemical shifts are reported in the standard δ notation of parts per million using the peak of residual proton signals of CDCl3 or d6-DMSO as an internal reference.

Structure (SMILES) | bleach rate [1] | bleach rate, fold smaller than di-4-ANEPPS [1] | Φ [2] | ε [2] | λem [2] | λmax [2]
CN(C)c1ccc(/C=C/c2ccc(/C=C/c3ccc(-c4c5cc(Cl)c(=O)cc-5oc5cc(O)c(Cl)cc45)c(S(=O)(=O)O)c3)cc2)cc1 [VF2.1.Cl, 5-(4-(4-(dimethyllamino)styryl)styryl)-2-(2,7-dichloro-6-hydroxy-3-oxo-3H-xanthen-9-yl)benzenesulfonic acid] | 8.0±0.1×10^−3 s^−1 | ninefold smaller | 0.057 | 98 000 M^−1·cm^−1 | 535 nm | 522 nm
CCCCN(CCCC)c1ccc(/C=C/c2ccc(/C=C/c3ccc(-c4c5cc(Cl)c(=O)cc-5oc5cc(O)c(Cl)cc45)c(S(=O)(=O)O)c3)cc2)cc1 [VF2.4.Cl, 5-(4-(4-(dibutylamino)styryl)styryl)-2-(2,7-dichloro-6-hydroxy-3-oxo-3H-xanthen-9-yl)benzenesulfonic acid] | 1.8±0.1×10^−2 s^−1 | four- | 0.054 | 97,000 M^−1·cm^−1 | 536 nm | 522 nm
